Here are results for 23 molecules from PubChem BioAssay AID330 (DTP/NCI, 2004).

“And” between values parts separate entries of the source, which are not always exact repeats. Equal values may be shown once. Inconclusive results and toxic doses are left out. Square brackets hold non-standard residues; d marks the D form. Peptide text beside a SMILES is read from it. Tyr(3,5-I2) = N[CH](Cc1cc(I)c(O)c(I)c1)C(=O)O

The test deals with P388 leukemia ip, CD2F1 mice, survival T/C. In words: NCI In Vivo Anticancer Drug Screen. Data for tumor model P388 Leukemia (intraperitoneal) in CD2F1 (CDF1) mice. The note with it: endpoint: median survival time, higher = longer survival. The essentials: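 Mice carrying the transplanted tumor received test compound or vehicle. Survival was recorded in each group, and the value is the treated-group measurement divided by that of the vehicle-treated control group.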

The mark [1] stands for this setting: dose: 60.0 mg/kg/injection, schedule: Q01DX005 (ip), vehicle: saline with Tween-80.
Setting [2] is: dose: 120.0 mg/kg/injection, schedule: Q01DX005 (ip), vehicle: saline with Tween-80.
Where [3] appears, read: dose: 240.0 mg/kg/injection, schedule: Q01DX005 (ip), vehicle: saline with Tween-80.
The mark [4] stands for this setting: dose: 50.0 mg/kg/injection, schedule: Q01DX005 (ip), vehicle: Klucel (hydroxypropylcellulose) (HPC).
[5] abbreviates: dose: 100.0 mg/kg/injection, schedule: Q01DX005 (ip), vehicle: Klucel (hydroxypropylcellulose) (HPC).
Setting [6] is: dose: 200.0 mg/kg/injection, schedule: Q01DX005 (ip), vehicle: Klucel (hydroxypropylcellulose) (HPC).
The mark [7] stands for this setting: dose: 100.0 mg/kg/injection, schedule: Q01DX009 (ip), vehicle: saline with Tween-80.
[8] abbreviates: dose: 12.5 mg/kg/injection, schedule: Q01DX009 (ip), vehicle: saline with Tween-80.
The mark [9] stands for this setting: dose: 25.0 mg/kg/injection, schedule: Q01DX009 (ip), vehicle: saline with Tween-80.
[10] abbreviates: dose: 50.0 mg/kg/injection, schedule: Q01DX009 (ip), vehicle: saline with Tween-80.
Setting [11] is: dose: 50.0 mg/kg/injection, schedule: Q01DX005 (ip), vehicle: saline with Tween-80.
Where [12] appears, read: dose: 100.0 mg/kg/injection, schedule: Q01DX005 (ip), vehicle: saline with Tween-80.
Setting [13] is: dose: 200.0 mg/kg/injection, schedule: Q01DX005 (ip), vehicle: saline with Tween-80.
Setting [14] is: dose: 12.5 mg/kg/injection, schedule: Q01DX005 (ip), vehicle: saline.
Setting [15] is: dose: 25.0 mg/kg/injection, schedule: Q01DX005 (ip), vehicle: saline.
Setting [16] is: dose: 50.0 mg/kg/injection, schedule: Q01DX005 (ip), vehicle: saline.
[17] abbreviates: dose: 100.0 mg/kg/injection, schedule: Q04DX002 (ip), vehicle: Klucel (hydroxypropylcellulose) (HPC).

On to `O=c1c(-c2ccccc2)coc2cc(O)ccc12`, for which the T/C was 105 % of control under setting [1], 89 % of control under setting [2] and 88 % of control under setting [3].

Turning to `CC(=O)NC(Cc1ccccc1)C(=O)NC(Cc1cc(I)c(O)c(I)c1)C(=O)O` (configuration not stated) (Ac-Phe-[Tyr(3,5-I2)]-OH; configuration not given here), the T/C was 93 % of control under setting [4], 107 % of control under setting [5] and 99 % of control under setting [6].

With `c1ccc(C2=NC3CCCCC3N=C2c2ccccc2)cc1` (configuration not stated), the T/C by setting is: under setting [7], 100 % of control; (dose: 200.0 mg/kg/injection, schedule: Q01DX009 (ip), vehicle: saline with Tween-80) 100 % of control; (dose: 400.0 mg/kg/injection, schedule: Q01DX009 (ip), vehicle: saline with Tween-80) 100 % of control.

For `O=C1C=CC(=O)N1c1ccc([N+](=O)[O-])cc1`, the T/C under setting [8] was 101 % of control, the T/C under setting [9] is 101 % of control and the T/C under setting [10] is 99 % of control.

On to `CC1=C(C(=O)/C=C/c2ccccc2)C(=O)c2ccccc2C1=O`, for which the T/C under setting [11] is 95 % of control, the T/C under setting [12] was 87 % of control and the T/C under setting [13] was 105 % of control.

On to `C[Si](C)(C)N1[Si](C)(C)N[Si](C)(C)N([Si](C)(C)F)[Si]1(C)C`, for which the T/C reads like this: under setting [4], 113 % of control; under setting [5], 105 % of control; under setting [6], 104 % of control.

For the molecule `CCc1ccc[n+](CCC2CNc3ccccc32)c1` (configuration not stated), the T/C is 98 % of control under setting [14]; 100 % of control under setting [15]; 100 % of control and 110 % of control under setting [16].

Regarding `Cc1cccc(C)c1NC(=O)C1CN(c2c(C)cccc2C)C(=O)/C1=N\O` (configuration not stated), the T/C under setting [11] is 111 % of control, the T/C under setting [12] was 108 % of control and the T/C under setting [13] was 103 % of control.

On to `CC1=C(CC/C(C)=C/CCC2=CCC(C3=CC(=O)OC3O)OC2O)C(C)(C)CCC1` (configuration not stated), for which the T/C is 116 % of control (dose: 1.0 mg/kg/injection, schedule: Q01DX009 (ip), vehicle: Klucel (hydroxypropylcellulose) (HPC)); 111 % of control (dose: 2.0 mg/kg/injection, schedule: Q01DX009 (ip), vehicle: Klucel (hydroxypropylcellulose) (HPC)); 117 % of control (dose: 4.0 mg/kg/injection, schedule: Q01DX009 (ip), vehicle: Klucel (hydroxypropylcellulose) (HPC)); 100 % of control (dose: 8.0 mg/kg/injection, schedule: Q01DX009 (ip), vehicle: Klucel (hydroxypropylcellulose) (HPC)); 117 % of control (dose: 16.0 mg/kg/injection, schedule: Q01DX009 (ip), vehicle: Klucel (hydroxypropylcellulose) (HPC)).

With `Cc1ccc2ccccc2[n+]1CC(=O)c1ccc2c(c1)OCO2`, the T/C reads like this: under setting [11], 110 % of control; under setting [12], 105 % of control; under setting [13], 103 % of control.

For `Oc1ccc(O)cc1`, the T/C reads like this: under setting [8], 106 % of control; under setting [9], 113 % of control; under setting [10], 122 % of control; under setting [7], 150 % of control.

As for `Cc1nc2sc3cc4ccccc4cc3n2c(=O)c1CN1CCCCC1`, the T/C runs as follows: (dose: 25.0 mg/kg/injection, schedule: Q04DX002 (ip), vehicle: Klucel (hydroxypropylcellulose) (HPC)) 98 % of control; (dose: 50.0 mg/kg/injection, schedule: Q04DX002 (ip), vehicle: Klucel (hydroxypropylcellulose) (HPC)) 113 % of control; under setting [17], 113 % of control.

Regarding `O=C(CC(=O)C(F)(F)F)c1cccs1.O=C(CC(=O)C(F)(F)F)c1cccs1.O=C(CC(=O)C(F)(F)F)c1cccs1.[Gd]`, the T/C is, setting by setting: (dose: 50.0 mg/kg/injection, schedule: Q01DX009 (ip), vehicle: saline) 96 % of control; (dose: 100.0 mg/kg/injection, schedule: Q01DX009 (ip), vehicle: saline) 96 % of control; (dose: 200.0 mg/kg/injection, schedule: Q01DX009 (ip), vehicle: saline) 99 % of control.

In the case of `CN1C(=O)C(C)(C)CN(c2ccccc2)C1=S`, the T/C is 100 % of control under setting [11], 108 % of control under setting [12] and 103 % of control under setting [13].

With `C[C@@H]1[C@H](c2ccccc2)OCN1C`, the T/C is, setting by setting: under setting [14], 101 % of control and 93 % of control; under setting [15], 101 % of control; (dose: 30.0 mg/kg/injection, schedule: Q01DX005 (ip), vehicle: saline) 111 % of control; under setting [16], 109 % of control and 124 % of control; (dose: 60.0 mg/kg/injection, schedule: Q01DX005 (ip), vehicle: saline) 118 % of control; (dose: 100.0 mg/kg/injection, schedule: Q01DX005 (ip), vehicle: saline) 111 % of control and 120 % of control. For the same molecule, the T/C (dose: 200.0 mg/kg/injection, schedule: Q01DX005 (ip), vehicle: saline) was 109 % of control.

On to `Cc1c(-c2ccccc2)nc(N)n1C`, for which the T/C (dose: 5.0 mg/kg/injection, schedule: Q04DX002 (ip), vehicle: saline) was 100 % of control; the T/C (dose: 10.0 mg/kg/injection, schedule: Q04DX002 (ip), vehicle: saline) was 99 % of control; the T/C (dose: 20.0 mg/kg/injection, schedule: Q04DX002 (ip), vehicle: saline) is 96 % of control.

For the molecule `c1ccc(/C(=N\Nc2nc3ccccc3s2)c2ccccn2)cc1`, the T/C was 104 % of control under setting [11], 109 % of control under setting [12] and 95 % of control under setting [13].

As to `CCOC(=O)N(CCN(C(=O)OCC)C1CCCCC1)C1CCCCC1`, the T/C runs as follows: under setting [1], 99 % of control; (dose: 100.0 mg/kg/injection, schedule: Q04DX002 (ip), vehicle: saline with Tween-80) 100 % of control; under setting [2], 99 % of control; (dose: 200.0 mg/kg/injection, schedule: Q04DX002 (ip), vehicle: saline with Tween-80) 90 % of control; under setting [3], 89 % of control; (dose: 400.0 mg/kg/injection, schedule: Q04DX002 (ip), vehicle: saline with Tween-80) 89 % of control.

On to `CCO/C=N\c1c(NC(N)=O)cnn1Cc1ccccc1`, for which the T/C is, setting by setting: (dose: 100.0 mg/kg/injection, schedule: Q01DX001 (ip), vehicle: saline with Tween-80) 96 % of control; (dose: 200.0 mg/kg/injection, schedule: Q01DX001 (ip), vehicle: saline with Tween-80) 93 % of control; (dose: 400.0 mg/kg/injection, schedule: Q01DX001 (ip), vehicle: saline with Tween-80) 98 % of control.

With `CC(C)N=C(NC(C)C)c1ccc(NC(=O)Nc2ccc(NC(=O)Nc3ccc(C(=NC(C)C)NC(C)C)cc3)cc2)cc1`, the T/C was 111 % of control (dose: 1.56 mg/kg/injection, schedule: Q01DX005 (ip), vehicle: saline with Tween-80); 108 % of control and 113 % of control (dose: 3.13 mg/kg/injection, schedule: Q01DX005 (ip), vehicle: saline with Tween-80); 104 % of control and 124 % of control (dose: 6.25 mg/kg/injection, schedule: Q01DX005 (ip), vehicle: saline with Tween-80).

`CC1(C)CCCC2(C)C1CCC1(C)OC(/C(=C\CO)CO)CC12` (configuration not stated): the T/C is 96 % of control (dose: 50.0 mg/kg/injection, schedule: Q01DX009 (ip), vehicle: Klucel (hydroxypropylcellulose) (HPC)) and 86 % of control (dose: 100.0 mg/kg/injection, schedule: Q01DX009 (ip), vehicle: Klucel (hydroxypropylcellulose) (HPC)).

On to `CCOC(=O)/C=C1\SC(C)(C)C1NC(=O)OCc1ccccc1` (configuration not stated), for which the T/C runs as follows: (dose: 15.0 mg/kg/injection, schedule: Q01DX005 (ip), vehicle: Klucel (hydroxypropylcellulose) (HPC)) 94 % of control; (dose: 30.0 mg/kg/injection, schedule: Q01DX005 (ip), vehicle: Klucel (hydroxypropylcellulose) (HPC)) 103 % of control; (dose: 60.0 mg/kg/injection, schedule: Q01DX005 (ip), vehicle: Klucel (hydroxypropylcellulose) (HPC)) 91 % of control and 93 % of control.

As to `Oc1c(Cl)cc(Cl)cc1/C=N\NC(=S)Nc1ccccc1`, the T/C runs as follows: under setting [17], 97 % of control; (dose: 200.0 mg/kg/injection, schedule: Q04DX002 (ip), vehicle: Klucel (hydroxypropylcellulose) (HPC)) 95 % of control.
